Measurements published in patent US8415156B2, “Recombinant laminin-521” (Biolamina AB, priority 2010, dated 2013).

Tested on: Akt and MEK1
Assay: Western blot of pathway inhibitor treated cells
Assay type: cell-based, human
Conditions: cells collected one hour after plating on LN-521, vs DMSO control
Excerpt: InSolutionTM LY 294002 (a specific […]), InSolutionTM Wortmannin (a specific PI3K inhibitor), and InSolutionTM 98059 (a specific MEK1/Erk inhibitor) were purchased from Calbiochem. Antibodies to phospho-Akt (#4060), total-Akt (#9272), phospho-Erk (#9101), and total-Erk (#9102) were obtained from Cell Signaling Technology. PathScan Phospho-Akt1 sandwich ELISA kit (#7160), PathScan total Akt1 sandwich ELISA kit (#7170), PathScan Phospho-Akt2 sandwich ELISA kit (#7048), and PathScan total Akt2 sandwich ELISA kit (#7046) were also purchased from Cell Signaling Technology. Antibodies to Calnexin (#ab10286) were obtained from Abcam. Function blocking antibodies to various integrin subunits, mouse isotype antibodies, and α-dystroglycan were purchased from Millipore. Since function blocking antibodies to αV (MAB1980) and α6 (MAB1378) were presented in a solution with sodium azide, before the inhibition of survival experiment all the antibodies to alpha integrin subunits were dialyzed thrice against O3 medium for 2 hours each time. Antibodies to Lutheran receptor and α-fetoprotein, as well as rat isotype control antibodies were obtained from R&D Systems. Antibodies to Oct4, Nanog, SSEA-4, smooth muscle actin and MAP-2 were purchased from Millipore. […] For the densitometry analysis the films were scanned at 2,400 dpi and analyzed by the […]5500 program (1D-Multi Line densitometry mode). […]

SMILES: COc1cccc(-c2cc(=O)c3ccccc3o2)c1N [PD 98059]
- efficacy of inhibitor treatment by western blot: confirmed
